{
  "source": "patent US20210128534A1",
  "about": "“DRUG DELIVERY SYSTEMS” (YISSUM RESEARCH DEVELOPMENT COMPANY OF THE HEBREW …, priority 2018, published 2021)",
  "key": {"[1]": {"test": "Dexamethasone palmitate solubility in FDA approved oils for ophthalmic use", "format": "physicochemical", "method": "8.1 Solubility in FDA Approved Oils for Ophthalmic Use\nDexamethasone palmitate solubility was assessed in mineral oil, castor oil and MCT."}, "[2]": {"test": "Reconstitution stability of lyophilized tacrolimus NCs in isotonic aqueous solution", "format": "physicochemical", "settings": "room temperature"}, "[3]": {"settings": "cited from earlier work"}},
  "data": [
    {"molecule": "CCCCCCCCCCCCCCCC(=O)OCC(=O)[C@@]1(O)[C@H](C)C[C@H]2[C@@H]3CCC4=CC(=O)C=C[C@]4(C)[C@@]3(F)[C@@H](O)C[C@@]21C", "note": "[Dexamethasone, Dexamethasone palmitate]", "values": [
      {"measurement": "Concentration", "setting": "[1]; solubility in Castor oil", "result": 33600, "unit": "µg/mL"},
      {"measurement": "Concentration", "setting": "[1]; solubility in MCT", "result": 46600, "unit": "µg/mL"},
      {"measurement": "Concentration", "setting": "[1]; solubility in Mineral oil", "result": 1300, "unit": "µg/mL"}
    ]},
    {"molecule": "C=CC[C@@H]1/C=C(\\C)C[C@H](C)C[C@H](OC)[C@H]2O[C@@](O)(C(=O)C(=O)N3CCCC[C@H]3C(=O)O[C@H](/C(C)=C/[C@@H]3CC[C@@H](O)[C@H](OC)C3)[C@H](C)[C@@H](O)CC1=O)[C@H](C)C[C@@H]2OC", "note": "[Tacrolimus]", "values": [
      {"measurement": "time the active remained stable in aqueous formulation", "setting": "[2]", "result": "at least 2 weeks"}
    ]},
    {"molecule": "Cyclosporine A [CsA]", "values": [
      {"measurement": "skin levels reported to be active for psoriasis", "setting": "[3]; equivalent to 1 ng/mg", "result": 1000, "unit": "ng/g"},
      {"measurement": "CsA concentration associated with good clinical response", "setting": "[3]; human patients with psoriasis, 12-hour trough", "result": "higher than 100 ng/ml"}
    ]}
  ]
}
